Assay results published in patent US11186564B2, “Dual NAV1.2/5HT2a inhibitors for treating CNS disorders” (Sunovion Pharmaceuticals Inc., priority 2016, dated 2021).
pIC50: −log10 of the molar value. Where two headings read alike, the source gives them in different places.

What was measured:
[1] = biological target: human sodium channel NaV1.2 (Homo sapiens, UniProt Q99250); experiment: NaV1.2 inhibition, automated patch-clamp (Q-Patch HTX), slow inactivated state (state C); assay type: cell-based; conditions: for inhibition at 1 µM: 1 μM compound, read-out: NaV1.2 (% inh), 1 μM; for inhibition at 10 µM: 10 μM compound, read-out: NaV1.2 (% inh), 10 μM; for IC50: reference compound
Description: In vitro method for NaV1.2 inhibition assays: The methods utilized to assess the inhibitory activity of compounds on NaV1.2 were based on the methods described by Liu et al. [Liu Y, Beck E J, & Flores C M (2011): Validation of a patch clamp screening protocol that simultaneously measures compound activity in multiple states of the voltage-gated sodium channel Nav1.2. Assay Drug Development Technology 9, 628-634]. For these electrophysiology assays, a cell line (Chinese Hamster Ovarian K-1 cells (CHO K-1)) engineered to stably express human sodium channel NaV1.2 was purchased from Millipore Corporation (catalog no. CYL3023). The electrophysiology measurements were performed using automated patch-clamp methods on a Q-Patch HTX instrument by scientists at Evotec AG under contract with Sunovion.
The solutions utilized for the Qpatch experiments were similar buffered solutions to those described by Liu et al. [Liu Y, Beck E J, & Flores C M (2011)]. The extracellular solution contained 140 millimolar sodium chloride, 4 millimolar potassium chloride, 2 millimolar calcium chloride, 1 millimolar magnesium chloride, 10 millimolar 4-(2-hydroxyethyl)-1-piperazineethanesulfonic acid (HEPES), and 10 millimolar glucose (pH adjusted to 7.4 with sodium hydroxide). The intracellular solution contained 100 millimolar cesium fluoride, 45 millimolar cesium chloride, 10 millimolar HEPES, 5 millimolar ethylene glycol tetraacetic acid (EGTA), and 5 millimolar glucose (pH adjusted to 7.2 with cesium hydroxide).
The biophysical experiments of Lui et al. [Liu Y, Beck E J, & Flores C M (2011)] were replicated to assess the fast, slow and total inactivation characteristics of the human Nav1.2 channel
Based upon results from studies of the fast, slow and total inactivation characteristics of the human Nav1.2 channel, a voltage protocol involving a sequence of consecutive pulses of current was used to measure channel activity in several states [Liu Y, Beck E J, & Flores C M (2011)]. The monolayer of CHO K-1 cells stably expressing human sodium channel NaV1.2 (hNaV1.2 CHO cells) was maintained in the Qpatch instrument at a potential of −100 millivolts (mV) except when the voltage protocol was being executed. The first pulse in the protocol involved a 100 millisecond depolarization to 0 mV to enable measurement of channel availability in the closed state (state A). The potential was then maintained at −90 mV for 15 milliseconds, followed by a five millisecond period of depolarization to 0 mV to enable measurement of channel availability after partial recovery from fast inactivation (state B). Next, the potential was maintained at −90 mV for 300 milliseconds, followed by ten seconds at −50 mV, 15 milliseconds at −90 mV, and finally another five millisecond period of depolarization to 0 mV to enable measurement of channel availability after additional recovery from fast inactivation and significant entry into the slow inactivated state (state C). Finally, after an additional 300 millisecond period at −90 mV, another five millisecond period of depolarization to 0 mV was employed to enable measurement of channel availability after partial recovery from the slow inactivated state (state D). Measurements of activity at state C were used to assess the activity of the NaV1.2 channel in the slow inactivated state. Comparison of activity after addition of test compounds or reference compounds with activity after addition of vehicle only provided a measure of percent remaining activity from which percent inhibition was calculated. […] A slight modification of this protocol was utilized to provide measurements as a function of compound concentration, which enabled IC50 values to be determined. IC50 values were calculated by non-linear least squares regression of the data (percent inhibition of ion channel NaV1.2 activity in the slow inactivated state) onto equation (1): % inhibition=100%/(1+(IC50/[compound]) equation (1)
J Pharmacol Exp Ther. 2008 July; 326(1):89-99.].

[2] = biological target: T1, recombinant human serotonin receptor 5-HT2A (Homo sapiens, UniProt P28223); experiment: 5-HT2A antagonist Ca2+ assay in CHO-K1 cells (method A aequorin luminescence / method B FLIPR fluorescence); assay type: cell-based; conditions: antagonist mode vs EC80 of reference agonist, method A or B, read-out: 5HT2A IC50
T1 construct: expressed in transfected cells; method B: loaded with Ca2+ dye
In short: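 Method A: CHO-K1 cells co-expressing human 5-HT2A and mitochondrial apoaequorin were given reference agonist at EC80 15 min after compound, with luminescence read. Method B: dye-loaded 5-HT2A CHO-K1 cells were pretreated with compound, then given serotonin at EC80, with FLIPR fluorescence read. IC50s came from nonlinear fits of percent inhibition.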

[3] = hNaV1.2 CHO cells, slow inactivated state, read-out: NaV1.2 IC50
[4] = hNaV1.2 CHO cells, slow inactivated state
[5] = Test 1, read-out: IC50 (μM) for NaV1.2 slow inactivated state, Test 1
[6] = Test 2, read-out: IC50 (μM) for NaV1.2 slow inactivated state, Test 2
[7] = Test 3, read-out: IC50 (μM) for NaV1.2 slow inactivated state, Test 3

human sodium channel NaV1.2, sequence (Q99250 whole entry): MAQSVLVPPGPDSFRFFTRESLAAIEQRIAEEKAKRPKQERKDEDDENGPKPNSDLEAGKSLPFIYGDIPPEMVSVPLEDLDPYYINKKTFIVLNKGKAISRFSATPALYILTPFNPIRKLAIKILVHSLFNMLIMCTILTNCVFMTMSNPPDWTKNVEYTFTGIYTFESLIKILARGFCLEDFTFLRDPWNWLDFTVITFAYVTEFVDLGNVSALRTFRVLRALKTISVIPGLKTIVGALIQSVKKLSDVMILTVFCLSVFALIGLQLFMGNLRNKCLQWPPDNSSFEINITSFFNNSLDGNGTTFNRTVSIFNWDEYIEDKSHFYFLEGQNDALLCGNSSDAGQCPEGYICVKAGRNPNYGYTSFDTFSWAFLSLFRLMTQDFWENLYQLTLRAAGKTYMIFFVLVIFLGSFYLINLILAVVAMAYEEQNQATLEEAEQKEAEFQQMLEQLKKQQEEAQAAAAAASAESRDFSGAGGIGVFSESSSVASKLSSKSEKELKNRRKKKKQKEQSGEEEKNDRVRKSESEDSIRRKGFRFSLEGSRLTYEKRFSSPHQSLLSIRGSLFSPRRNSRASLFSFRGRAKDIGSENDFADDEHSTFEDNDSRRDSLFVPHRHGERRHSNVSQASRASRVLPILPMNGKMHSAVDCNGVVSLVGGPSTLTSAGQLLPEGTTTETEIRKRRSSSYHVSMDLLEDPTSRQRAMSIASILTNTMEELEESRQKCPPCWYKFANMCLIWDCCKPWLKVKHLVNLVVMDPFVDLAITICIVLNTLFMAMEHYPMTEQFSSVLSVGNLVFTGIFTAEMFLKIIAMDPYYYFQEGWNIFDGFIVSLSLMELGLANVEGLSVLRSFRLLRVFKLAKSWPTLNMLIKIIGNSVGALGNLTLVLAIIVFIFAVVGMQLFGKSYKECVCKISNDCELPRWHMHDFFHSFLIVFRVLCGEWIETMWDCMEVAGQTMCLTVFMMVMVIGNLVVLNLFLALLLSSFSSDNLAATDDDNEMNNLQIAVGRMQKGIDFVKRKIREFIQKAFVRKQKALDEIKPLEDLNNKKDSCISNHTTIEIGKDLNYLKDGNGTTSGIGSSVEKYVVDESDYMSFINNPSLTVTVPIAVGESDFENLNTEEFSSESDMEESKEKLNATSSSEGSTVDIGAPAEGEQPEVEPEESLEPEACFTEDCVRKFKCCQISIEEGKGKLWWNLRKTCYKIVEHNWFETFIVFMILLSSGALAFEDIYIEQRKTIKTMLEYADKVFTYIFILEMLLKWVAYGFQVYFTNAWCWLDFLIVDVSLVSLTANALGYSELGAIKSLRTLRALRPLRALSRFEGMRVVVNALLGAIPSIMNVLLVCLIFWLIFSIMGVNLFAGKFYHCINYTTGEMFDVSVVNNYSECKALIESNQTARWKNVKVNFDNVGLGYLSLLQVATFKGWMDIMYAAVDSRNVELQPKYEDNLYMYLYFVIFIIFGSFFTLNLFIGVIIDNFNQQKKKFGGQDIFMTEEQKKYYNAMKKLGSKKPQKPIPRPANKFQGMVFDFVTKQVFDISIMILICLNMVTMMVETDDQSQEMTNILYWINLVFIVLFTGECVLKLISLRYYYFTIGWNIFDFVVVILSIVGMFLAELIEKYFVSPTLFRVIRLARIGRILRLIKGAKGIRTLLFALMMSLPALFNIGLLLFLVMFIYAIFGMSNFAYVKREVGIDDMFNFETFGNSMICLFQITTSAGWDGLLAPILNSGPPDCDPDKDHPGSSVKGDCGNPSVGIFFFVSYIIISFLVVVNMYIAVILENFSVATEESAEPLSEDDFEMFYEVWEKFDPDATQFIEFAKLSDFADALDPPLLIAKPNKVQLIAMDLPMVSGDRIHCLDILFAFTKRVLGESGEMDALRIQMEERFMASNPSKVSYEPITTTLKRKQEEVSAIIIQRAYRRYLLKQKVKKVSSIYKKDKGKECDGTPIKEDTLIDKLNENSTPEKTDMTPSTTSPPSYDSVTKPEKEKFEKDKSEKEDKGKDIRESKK
T1 sequence (P28223 whole entry): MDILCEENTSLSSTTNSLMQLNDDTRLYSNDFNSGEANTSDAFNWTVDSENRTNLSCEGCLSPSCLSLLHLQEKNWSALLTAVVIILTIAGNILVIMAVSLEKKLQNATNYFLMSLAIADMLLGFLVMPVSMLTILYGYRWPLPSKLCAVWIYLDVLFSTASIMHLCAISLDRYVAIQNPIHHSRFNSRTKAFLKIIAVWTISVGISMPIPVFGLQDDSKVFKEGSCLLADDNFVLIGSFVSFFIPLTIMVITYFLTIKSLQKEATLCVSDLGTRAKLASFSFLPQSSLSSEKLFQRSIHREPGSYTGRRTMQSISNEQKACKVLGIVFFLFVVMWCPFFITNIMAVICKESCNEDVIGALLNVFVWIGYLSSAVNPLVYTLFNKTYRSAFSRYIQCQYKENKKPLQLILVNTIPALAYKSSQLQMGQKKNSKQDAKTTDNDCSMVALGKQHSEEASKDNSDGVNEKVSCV

OC(CO[C@@H]1CCCc2ccccc21)CN1CC[C@@H](Oc2ccc(F)cc2)C1 (stereo partly drawn) [Example 50, 1-((R)-3-(4-fluorophenoxy)pyrrolidin-1-yl)-3-(((R)-1,2,3,4-tetrahydronaphthalen-1-yl)oxy)propan-2-ol]
pIC50 [1, 3]: 5.89 | pIC50 [2]: 7.22

O[C@@H](CO[C@H]1CCCc2ccccc21)CN1CCN(Cc2ccccc2)CC1 [Example 85, (R)-1-(4-benzylpiperazin-1-yl)-3-(((S)-1,2,3,4-tetrahydronaphthalen-1-yl)oxy)propan-2-ol]
inhibition at 1 µM [1, 4]: 24% | pIC50 [2]: < 4.92

Fc1ccc(OC2CCN(CCC3CCc4ccncc43)CC2)cc1 (centres unmarked) [Example 174, 7-(2-(4-(4-fluorophenoxy)piperidin-1-yl)ethyl)-6,7-dihydro-5H-cyclopenta[c]pyridine]
inhibition at 1 µM [1, 4]: 12% | pIC50 [2]: 8.00

c1ccc2c(c1)CCC1(CCN(CCC3COCc4ccccc43)CC1)O2 (centres unmarked) [Example 421, 1′-(2-(isochroman-4-yl)ethyl)spiro[chromane-2,4′-piperidine]]
inhibition at 1 µM [1, 4]: 29% | pIC50 [2]: 6.89

O=C1Cc2ccccc2N1CCCN1CCC(Oc2ccc(F)cc2)CC1 [Example 219, 1-(3-(4-(4-fluorophenoxy)piperidin-1-yl)propyl)indolin-2-one]
inhibition at 10 µM [1, 4]: 54% | pIC50 [2]: 8.00

c1ccc2c(c1)CCC1(CCN(CCO[C@H]3CCc4ccccc43)CC1)O2 [Example 432]
pIC50 [1, 3]: 6.44 | pIC50 [2]: 6.82

O=C1c2ccccc2CCN1CCN1C[C@@H]2C[C@H]1CN2c1ccccc1 [Example 304, 2-(2-((1S,4S)-5-phenyl-2,5-diazabicyclo[2.2.1]heptan-2-yl)ethyl)-3,4-dihydroisoquinolin-1(2H)-one]
inhibition at 1 µM [1, 4]: 4% | pIC50 [2]: 5.15

c1ccc2c(c1)CC1(CCN(CC3CCc4ccccc43)CC1)CO2 (centres unmarked) [Example 442, 1′-((2,3-dihydro-1H-inden-1-yl)methyl)spiro[chromane-3,4′-piperidine]]
inhibition at 1 µM [1, 4]: 37% | pIC50 [2]: 6.23

c1ccc(CCN2CCC3(CCc4ccccc4O3)CC2)cc1 [Example 427, l′-phenethylspiro[chromane-2,4′-piperidine]]
inhibition at 10 µM [1, 4]: 81%

CN1CCN(c2ncc(-c3cc(Cl)cc(Cl)c3Cl)c(N)n2)CC1 [sipatrigine]
IC50 [1, 5]: 1.6 µM | IC50 [1, 6]: 2.8 µM | IC50 [1, 7]: 0.6 µM | IC50 ([1]; Test 4, read-out: IC50 (μM) for NaV1.2 slow inactivated state, Test 4): 0.5 µM

COC[C@@H](NC(C)=O)C(=O)NCc1ccccc1 [lacosamide, reference compound]
pIC50 [1]: 4.19

COc1ccc2c(c1)C(CN1CCN(c3ccccc3)CC1)CC2 (centres unmarked) [Example 54, 1-((6-methoxy-2,3-dihydro-1H-inden-1-yl)methyl)-4-phenylpiperazine]
pIC50 [1, 3]: 5.58

NC(=O)N1c2ccccc2C=Cc2ccccc21 [carbamazepine, reference compound]
IC50 [1, 5]: 19 µM | IC50 [1, 6]: 22 µM

COc1ccc2c(c1)C(C)(CN1CCC(Oc3ccccc3OC)CC1)CC2 (centres unmarked) [Example 97, 1-((6-methoxy-1-methyl-2,3-dihydro-1H-inden-1-yl)methyl)-4-(2-methoxyphenoxy)piperidine]
pIC50 [1, 3]: 7.10

Nc1nnc(-c2cccc(Cl)c2Cl)c(N)n1 [lamotrigine, reference compound]
IC50 [1, 5]: 34 µM | IC50 [1, 6]: 33 µM | IC50 [1, 7]: 25 µM

c1ccc(N2C[C@@H]3C[C@H]2CCN3CCC2CCc3cccnc32)cc1 (stereo partly drawn) [Example 323, 7-(2-((1S,5R)-6-phenyl-2,6-diazabicyclo[3.2.1]octan-2-yl)ethyl)-6,7-dihydro-5H-cyclopenta[b]pyridine]
pIC50 [2]: < 5.50

CC(C1CCc2ccccc21)N1CCC[C@H](Oc2ccc(F)cc2)C1 (stereo partly drawn) [Example 257, (3S)-1-(1-(2,3-dihydro-1H-inden-1-yl)ethyl)-3-(4-fluorophenoxy) piperidine]
pIC50 [2]: < 5.00

C[C@@H]1C[C@]2(CCc3ccccc3O2)CCN1CCO[C@H]1CCc2ccccc21 [Example 435, (2S,2′R)-1′-(2-(((S)-2,3-dihydro-1H-inden-1-yl)oxy)ethyl)-2′-methylspiro[chromane-2,4′-piperidine]]
pIC50 [2]: 6.43

CC1(C)Oc2ccccc2C1CN1CCC(Oc2ccc(F)cc2)CC1 (centres unmarked) [Example 135, 1-((2,2-dimethyl-2,3-dihydrobenzofuran-3-yl)methyl)-4-(4-fluorophenoxy)piperidine]
pIC50 [2]: 6.92

OC(COC1CCCCC1)CN1CCC2(CCCN2c2ccccc2)CC1 (centres unmarked) [Example 355, 1-(cyclohexyloxy)-3-(1-phenyl-1,8-diazaspiro[4.5]decan-8-yl)propan-2-ol]
pIC50 [2]: < 4.78

c1ccc(N2[C@@H]3C[C@H]2CN(CC2CCc4ccccc42)C3)cc1 (stereo partly drawn) [Example 293, (1R,5S)-3-((2,3-dihydro-1H-inden-1-yl)methyl)-6-phenyl-3,6-diazabicyclo[3.1.1]heptane]
pIC50 [2]: 5.99

COc1ccccc1O[C@H]1CCN(CCN2CCc3ccccc3C2=O)[C@H]1C [Example 19, 2-(2-((2S,3S)-3-(2-methoxyphenoxy)-2-methylpyrrolidin-1-yl)ethyl)-3,4-dihydroisoquinolin-1(2H)-one]
pIC50 [2]: 6.25

Fc1ccccc1OC1CCN(CC2COc3ccccc32)CC1 (centres unmarked) [Example 132, 1-((2,3-dihydrobenzofuran-3-yl)methyl)-4-(2-fluorophenoxy)piperidine]
pIC50 [2]: 7.40

OC(CO[C@H]1CCc2ccccc21)CN1CCC(Oc2ccc(F)cc2)CC1 (stereo in doubt) [Example 237, (R)-1-(((S)-2,3-dihydro-1H-inden-1-yl)oxy)-3-(4-(4-fluorophenoxy)piperidin-1-yl)propan-2-ol]
pIC50 [2]: 6.22

Fc1ccc(O[C@@H]2CCCN(CCC3CCOc4ccccc43)C2)cc1 (stereo partly drawn) [Example 262, (3R)-1-(2-(chroman-4-yl)ethyl)-3-(4-fluorophenoxy)piperidine]
pIC50 [2]: 5.79

OC(CO[C@H]1CCCc2ccccc21)CN1CC[C@@H](Oc2ccc(F)cc2)C1 (stereo partly drawn) [Example 48, 1-((R)-3-(4-fluorophenoxy)pyrrolidin-1-yl)-3-(((S)-1,2,3,4-tetrahydronaphthalen-1-yl)oxy)propan-2-ol]
pIC50 [2]: 5.65

COc1ccccc1OC1CCN(CC2CCc3ccccc32)CC1 (centres unmarked) [Example 105, 1-((2,3-dihydro-1H-inden-1-yl)methyl)-4-(2-methoxyphenoxy)piperidine]
pIC50 [2]: 6.37

COc1cccc(O[C@H]2CCN(CCN3CCc4ccccc4C3=O)C2)c1 [Example 22, (S)-2-(2-(3-(3-methoxyphenoxy)pyrrolidin-1-yl)ethyl)-3,4-dihydroisoquinolin-1(2H)-one]
pIC50 [2]: 5.63

CC1(C)Oc2ccccc2C1CN1CCC(Oc2ccccc2F)CC1 (centres unmarked) [Example 133, 1-((2,2-dimethyl-2,3-dihydrobenzofuran-3-yl)methyl)-4-(2-fluorophenoxy)piperidine]
pIC50 [2]: 6.54

Fc1ccc(OC2CCCN(CC3Cc4cccnc4C3)CC2)cc1 (centres unmarked) [Example 273, 6-((4-(4-fluorophenoxy)azepan-1-yl)methyl)-6,7-dihydro-5H-cyclopenta[b]pyridine]
pIC50 [2]: 7.70
